Consider four compounds from US10183011B2, “Anti-depression compounds” (Board of Regents of the University of Texas System, priority 2009, dated 2019).

In assay [1] the test system is spinal cord motor neurons. The assay can be described thus: Spinal motor neuron survival (ChAT) in G93A-SOD1 mice, treatment from disease onset (day 80). Type of assay: in vivo, mouse. The following applies: 20 mg/kg/day from day 80; days 90-120. As to the method: FIG. 34A and FIG. 34B. P7C3A20 and P7C3 block motor neuron cell death in the spinal cord when administered at the time of disease onset to G93A-SOD1 mutant mice. Treatment of G93A-SOD1 mutant mice with 20 mg/kg/d of P7C3A20, P7C3 or Dimebon, or the appropriate vehicle, was initiated on day 80. Five mice from each group were sacrificed on days 90, 100, 110 and 120. The number of spinal cord motor neurons per cubic millimeter of lumbar spinal cord was determined through immunohistochemical staining for ChAT and quantification with NIH Image J software. All images were analyzed blind to treatment group. Spinal cord motor neurons in G93A-SOD1 mutant mice died over time as expected. Spinal cord motor neuron cell death was blocked by administration of P7C3A20. P7C3 was intermediately protective, while Dimebon had no neuroprotective efficacy. (FIG. 34A) Representative staining of ChAT of one ventral horn from each of the 5 mice in each treatment group at 110 days. (FIG. 34B) Graph representation.
Based on the promising results of early (day 40) administration of P7C3 to G93A-SOD1 mutant mice, we next sought to determine whether P7C3A20, P7C3 or Dimebon could protect ventral horn spinal motor neurons when administered at the expected time of disease onset (day 80). We initiated administration of either P7C3, P7C3A20 or Dimebon, each at a dose of 20 mg/kg/day, and analyzed motor neuron cell survival by staining lumbar spinal sections for choline acetyltransferase (ChAT). ChAT, the enzyme that synthesizes the neurotransmitter acetylcholine, serves as a marker for spinal cord motor neurons. All sections were counted blind to treatment group in order to quantify motor neuron survival, and five mice for each treatment group were analyzed at 90, 100, 110 and 120 days. Each treatment group was compared to its own sibling-matched group that received the corresponding vehicle. […]

The subject of a further assay is U2OS cells. In words: Calcium ionophore A23187-induced loss of mitochondrial membrane potential (TMRM dye release). Type of assay: cell-based. From the text: FIG. 22A, FIG. 22B, FIG. 22C, FIG. 22D, FIG. 22E and FIG. 22F: Example 45 Compound Preserves Mitochondrial Membrane Potential in Parallel to Proneurogenic Activity U2OS cells were loaded with tetramethylrhodamine methyl ester (TMRM) dye and then exposed to the calcium ionophore A23187 either in the presence or absence of test compounds. Example 45 Compound (FIG. 22A) preserved mitochondrial membrane potential following exposure to the calcium ionophore A23187 in a dose-dependent manner. The protective effect of P7C3 was enantiomeric specific. […] Each compound was evaluated in triplicate with similar results.
Extensive evidence pioneered by the laboratory of Xiaodong Wang has shown that an intrinsic pathway leading to programmed cell death emanates from mitochondria (Liu et al., Cell 1996, 86, 147-157; Yang et al., Science 1997, 275, 1129-1132). With the help of the Wang lab, assays were established to test whether Example 45 Compound might protect mitochondria from calcium-induced dissolution (Distelmaier et al., Cytometry A 2008, 73, 129-138). Tetramethylrhodamine methyl ester (TMRM) is a cell-permeant, cationic red-orange fluorescent dye that is readily sequestered by active mitochondria. When loaded with TMRM dye, vehicle-only treated cells released the dye within 15 minutes of exposure to the calcium ionophore A23187. By contrast, dye release was prevented in cells exposed to as little as […] of Example 45 Compound (FIG. 18A).
Since P7C3 ameliorates the death of newborn neurons in the dentate gyrus in living mice, it is possible that its function might relate to mitochondrial integrity. Assays were established to test whether P7C3 might protect cultured U2OS cells from calcium-induced mitochondrial dissolution (Distelmaier et al., Cytometry A 2008, 73, 129-138). Tetramethylrhodamine methylester (TMRM) dye is sequestered by active mitochondria, and, when loaded with TMRM, vehicle-treated cells released the dye within 15 rain of exposure to the calcium ionophor A23 187.

Molecules are shown by their SMILES. Entries after “also recorded” stand apart in the source; their conditions may differ.

Regarding `Cc1ccc2c(c1)c1c(n2CCc2ccc(C)nc2)CCN(C)C1` [Dimebon, 2,3,4,5-Tetrahydro-2,8-dimethyl-5-(2-(6-methyl-3-pyridyl)ethyl)-1H-pyrido(4,3-b)indole, reference compound], the “spinal motor neuron cell death” value in assay [1] is on record as “indistinguishable from vehicle treatment groups”. As to `OC(CNc1ccccc1)Cn1c2ccc(Br)cc2c2cc(Br)ccc21` (stereo not drawn) [Example 45 Compound], the “lowest amount that prevented TMRM dye release” value with U2OS cells was no more than 10 ng.

As for `COc1cccc(NCC(F)Cn2c3ccc(Br)cc3c3cc(Br)ccc32)c1` (stereo not drawn) [Example P7C3A20, N-(3-(3,6-dibromo-9H-carbazol-9-yl)-2-fluoropropyl)-3-methoxyaniline], the “preservation of mitochondrial membrane potential” value with U2OS cells (TMRM dye) is “protection of mitochondrial membrane permeability was observed at an enhanced level; also recorded: exhibited dye release protection at all doses tested”. Besides, in assay [1], the “spinal motor neuron cell death” value is recorded as “provided significant protection from spinal motor neuron cell death”. On to `OC(CNc1ccccc1)Cn1c2ccc(Br)cc2c2cc(Br)ccc21` (stereo not drawn) [Example P7C3], for which the “lowest concentration that blocked TMRM dye release” value in the assay on U2OS cells (U2OS cells) is no more than 10 nM. In assay [1], the “spinal motor neuron cell death” value is “provided intermediate protection on days 100 (p=0.048) and 110 (p=0.01)”.
